Measured values as given in US20060035317A1, “Effect of treatment with 4,5-dihydroxy-2-cyclopenten-1-one (dhcp) on gene expression and quorum-sensing in bacteria” (priority 2002, published 2006).
Several values for one entry are separate records, joined by “and”; a condition that tells them apart may be missing. Equal values may be shown once. Read-outs that look alike come from different tables or passages of the source.

Legend:
[1] = test system: E. coli wild-type strain JM83 (gene expression); test: DNA microarray analysis of mRNA levels in DHCP-treated vs control cells; assay type: cell-based; conditions: DHCP 250 μM, 8 h
Procedure: E. coli wild-type strain JM83 [F^− araΔ(lac-proAB) rpsL(str^r)] (Yanisch-Perron et al., 1985) was grown in Luria broth (LB). V. harveyi strains BB152 and BB170 were a gift from Dr. Bonnie Bassler (Princeton University). These strains were grown in AB medium as described previously (Surette et al., 1999).
E. coli cells grown overnight in LB medium were diluted into fresh LB medium. After the growth reached a Klett unit of 50, DHCP was added (250 μM) and growth was further monitored. After growth reached a Klett unit of 90-100, it was diluted 10-fold into a medium containing the same concentration of DHCP as described previously (Phadtare et al., 2001). The cells were harvested after a total of 8 h of incubation with DHCP. […] The total RNA was extracted by the hot phenol method described previously (Sarmientos et al., 1983). It was further purified by RNeasy Minikit (Qiagen) and was then treated with DNase I followed by phenol-chloroform treatment and ethanol precipitation. It was quantified by measuring absorbance at 260 nm. The purity of RNA was confirmed by agarose gel electrophoresis.
The mRNAs were labeled with Cy3-dUTP and Cy5-dUTP (Amersham Pharmacia). Random Hexamer pd(N)6 (Amersham Pharmacia) was used as a primer and the IntelliGene E. coli CHIP Version 1 (Takara Shuzo, Co. Ltd., Japan) the DNA microarray was used. This represents the entire ORF of E. coli K-12 W3110.
The cell densities of the control (untreated) and the DHCP-treated cells used were the same; thus, the changes seen in the microarray were not substantially influenced by the difference in cell densities. RNAs isolated from the respective cells were used to generate probes for hybridization of DNA arrays and the data were quantified as described in the Materials and Methods section of this Example. Calculation of the log expression ratios of the corresponding spots allowed pair-wise comparisons of the relative transcript levels for each of the E. coli genes under the two growth conditions. Only those genes whose expression levels differed by log ratio of at least four were considered. In some cases, genes belonging to same operon or category were considered even if the log ratios differed by the factor of only three or little less than three. Log ratios above zero value indicate induction and below zero value indicate repression by DHCP treatment. […] The results of both methods are in agreement with each other.

[2] = test system: AI-2 activity, V. harveyi reporter strain BB170; conditions: Schauder et al., 2001; cited from earlier work
E. coli JM83 = conditions: DHCP 250 μM, Phadtare et al., 2001, cited from earlier work

With `O=C1C=CC(O)C1O` (centres unmarked) [DHCP, 4,5-dihydroxy-2-cyclopenten-1-one] the “Increase of mRNA levels” value ([1]; Cys regulon genes cysA, cysD, cysH, cysI, cysJ, cysk, cysM, cysN, cysP, cysQ, cysU, cysW) was 3-20 times, the “Ratio (DHCP-treated/control)” value ([1]; gene CysH (Adenylsulphate reductase)) was 6.50 and the “Ratio (DHCP-treated/control)” value ([1]; gene CysI (Sulfite reductase(NADPH) alpha subunit)) was 7.30. For the same compound, the “Ratio (DHCP-treated/control)” value ([1]; gene CysJ (Sulfite reductase(NADPH) beta subunit)) was 4.70, the “Ratio (DHCP-treated/control)” value ([1]; gene CysK (Cysteine synthase)) was 20 and the “Ratio (DHCP-treated/control)” value ([1]; gene CysM (O-acetylserine (thiol)-lyase B)) was 3.00. For the same compound, the “Ratio (DHCP-treated/control)” value ([1]; gene CysN (Sulfate adenylyltransferase)) was 5.00, the “Ratio (DHCP-treated/control)” value ([1]; gene CysP (Thiosulfate-binding protein CysP precursor)) was 3.55 and the “Ratio (DHCP-treated/control)” value ([1]; gene CysQ (Ammonium transport protein CysQ)) was 3.28. For the same compound, the “Ratio (DHCP-treated/control)” value ([1]; gene CysW (Sulfate/thiosulfate transport protein CysW)) was 15.00, the “Ratio (DHCP-treated/control)” value ([1]; gene EntA (2,3-dihydro-2,3-dihydroxybenzoate)) was 0.44 and the “Ratio (DHCP-treated/control)” value ([1]; gene EntB (Isochorismatase)) was 0.23. For the same compound, the “Ratio (DHCP-treated/control)” value ([1]; gene EntC (Isochorismate synthase)) was 0.45, the “Ratio (DHCP-treated/control)” value ([1]; gene EntE (Enterochelin synthetase)) was 0.32 and the “Ratio (DHCP-treated/control)” value ([1]; gene Fbp (Fructose-1,6-biphosphatase)) was 4.00. The “Ratio (DHCP-treated/control)” value ([1]; gene FruB (PTS system)) was 0.12, the “Ratio (DHCP-treated/control)” value ([1]; gene FruK (I-phosphofructokinase)) was 0.03 and the “Ratio (DHCP-treated/control)” value ([1]; gene GalM (Aldose 1-epimerase)) was 4.00. For the same compound, the “Ratio (DHCP-treated/control)” value ([1]; gene Gale (UDP-glucose 4-epimerase)) was 4.60, the “Ratio (DHCP-treated/control)” value ([1]; gene MarA (Multiple antibiotic resistance protein MarA)) was 5 and the “Ratio (DHCP-treated/control)” value ([1]; gene MdaB (Modulator of drug activity)) was 10. For the same compound, the “Ratio (DHCP-treated/control)” value ([1]; gene TalA (Patatire transaldolase)) was 7.6, the “Ratio (DHCP-treated/control)” value ([1]; gene TehB (Tellurite resistance protein TehB)) was 5 and the “Ratio (DHCP-treated/control)” value ([1]; gene YidS (unknown function or class)) was 4. The “Ratio (DHCP-treated/control)” value ([1]; gene ZipA (Cell division protein)) was 4.50, the “Decrease of mRNA level” value ([1]; gene ackA) was 3.6 times and the “Ratio (DHCP-treated/control)” value ([1]; gene ansP (L-asparagine permease)) was 0.29. For the same compound, the “Ratio (DHCP-treated/control)” value ([1]; gene atoE (Short-chain fatty acids)) was 0.17, the “Ratio (DHCP-treated/control)” value ([1]; gene atzN (Zinc-transporting ATPase)) was 11 and 11.30 and the “Ratio (DHCP-treated/control)” value ([1]; gene cheA (Chemotaxis protein CheA)) was 0.25. The “Ratio (DHCP-treated/control)” value ([1]; gene cpxP (Periplasmic protein precursor)) was 4.95, the “Ratio (DHCP-treated/control)” value ([1]; gene creD (Inner-membrane protein CreD)) was 47 and the “Ratio (DHCP-treated/control)” value ([1]; gene cysU (Sulfate transport system permease)) was 4.99. The “Ratio (DHCP-treated/control)” value ([1]; gene czcD (Cation efflux protein CzcD)) was 3.60, the “Ratio (DHCP-treated/control)” value ([1]; gene dps (DNA-binding protein Dps)) was 13 and the “Ratio (DHCP-treated/control)” value ([1]; gene fadL (Long-chain fatty acid transport protein)) was 0.10. The “Ratio (DHCP-treated/control)” value ([1]; gene fecA (Iron(III) dicitrate transport protein FecA)) was 0.16, the “Ratio (DHCP-treated/control)” value ([1]; gene fecB (Iron(III) dicitrate-binding protein)) was 0.15 and the “Ratio (DHCP-treated/control)” value ([1]; gene fecC (FecC protein)) was 0.21. For the same compound, the “Ratio (DHCP-treated/control)” value ([1]; gene fecD (Iron(III) dicitrate transport system protein)) was 0.15, the “Ratio (DHCP-treated/control)” value ([1]; gene fecE (Iron(III) dicitrate transport protein)) was 0.11 and the “Ratio (DHCP-treated/control)” value ([1]; gene fepA (Ferrienterochelin receptor precursor)) was 0.25. The “Ratio (DHCP-treated/control)” value ([1]; gene fepC (Ferric enterobactin transport protein FepC)) was 0.40, the “Inhibition of mRNA level” value ([1]; gene fruB) was 8 times and the “Inhibition of mRNA level” value ([1]; gene fruK) was 33 times. For the same compound, the “Ratio (DHCP-treated/control)” value ([1]; gene glf (UDP-galactopyranose mutase)) was 0.20, the “Ratio (DHCP-treated/control)” value ([1]; gene hdeB (10k-1 protein precursor)) was 6.00 and the “Ratio (DHCP-treated/control)” value ([1]; gene katG (Catalase HPI)) was 9.00. The “Ratio (DHCP-treated/control)” value ([1]; gene lysP (Lysin-specific permease)) was 0.16, the “Ratio (DHCP-treated/control)” value ([1]; gene motA (Chemotaxis protein MotA)) was 0.18 and the “Ratio (DHCP-treated/control)” value ([1]; gene motB (Chemotaxis protein MotB)) was 0.40. The “Ratio (DHCP-treated/control)” value ([1]; gene msyB (Membrane protein)) was 4.25, the “Ratio (DHCP-treated/control)” value ([1]; gene nmpC (Outer membrane porin protein precursor)) was 0.01 and the “Ratio (DHCP-treated/control)” value ([1]; gene ompA (Outer membrane protein a precursor)) was 0.23. The “Ratio (DHCP-treated/control)” value ([1]; gene ompC (Outer membrane protein c precursor)) was 0.20, the “Ratio (DHCP-treated/control)” value ([1]; gene ompF (Outer membrane protein f precursor)) was 0.06 and the “Ratio (DHCP-treated/control)” value ([1]; gene ompT (ProteinaseVII)) was 0.11. The “Ratio (DHCP-treated/control)” value ([1]; gene osmY (Hyperosmotically induced protein)) was 12.00, the “Ratio (DHCP-treated/control)” value ([1]; gene otsA (Tehalose-6-phosphate synthase)) was 11.00 and the “Ratio (DHCP-treated/control)” value ([1]; gene pheP (phenylalanine transport protein pheP)) was 0.13. For the same compound, the “Ratio (DHCP-treated/control)” value ([1]; gene plsX (PlsX protein)) was 0.28, the “Ratio (DHCP-treated/control)” value ([1]; gene potA (Spermidine/putrescine transport protein A)) was 0.13 and the “Ratio (DHCP-treated/control)” value ([1]; gene potB (Spermidine/putrescine transport system)) was 0.13. The “Ratio (DHCP-treated/control)” value ([1]; gene potC (Spermidine/putrescine transport system)) was 0.20, the “Ratio (DHCP-treated/control)” value ([1]; gene potD (Spermidine/putrescine transport protein D)) was 0.19 and the “Ratio (DHCP-treated/control)” value ([1]; gene poxB (Pyruvate dehydrogenase)) was 15.00. The “Ratio (DHCP-treated/control)” value ([1]; gene rfc (Probably O-antigen polymerase)) was 0.23, the “Ratio (DHCP-treated/control)” value ([1]; gene rplA (Ribosomal protein L1)) was 0.23 and the “Ratio (DHCP-treated/control)” value ([1]; gene rplB (Ribosomal protein L2)) was 0.25. For the same compound, the “Ratio (DHCP-treated/control)” value ([1]; gene rplC (Ribosomal protein L3)) was 0.28, the “Ratio (DHCP-treated/control)” value ([1]; gene rplD (Ribosomal protein L4)) was 0.27 and the “Ratio (DHCP-treated/control)” value ([1]; gene rplE (Ribosomal protein L5)) was 0.34. The “Ratio (DHCP-treated/control)” value ([1]; gene rplF (Ribosomal protein L6)) was 0.30, the “Ratio (DHCP-treated/control)” value ([1]; gene rplI (Ribosomal protein L9)) was 0.25 and the “Ratio (DHCP-treated/control)” value ([1]; gene rplJ (Ribosomal protein L10)) was 0.28. For the same compound, the “Ratio (DHCP-treated/control)” value ([1]; gene rplK (Ribosomal protein L11)) was 0.39, the “Ratio (DHCP-treated/control)” value ([1]; gene rplM (Ribosomal protein L13)) was 0.49 and the “Ratio (DHCP-treated/control)” value ([1]; gene rplN (Ribosomal protein L14)) was 0.44. For the same compound, the “Ratio (DHCP-treated/control)” value ([1]; gene rplO (Ribosomal protein L15)) was 0.36, the “Ratio (DHCP-treated/control)” value ([1]; gene rplP (Ribosomal protein L16)) was 0.36 and the “Ratio (DHCP-treated/control)” value ([1]; gene rplQ (Ribosomal protein L17)) was 0.47. The “Ratio (DHCP-treated/control)” value ([1]; gene rplR (Ribosomal protein L18)) was 0.38, the “Ratio (DHCP-treated/control)” value ([1]; gene rplS (Ribosomal protein L19)) was 0.35 and the “Ratio (DHCP-treated/control)” value ([1]; gene rplV (Ribosomal protein L22)) was 0.28. The “Ratio (DHCP-treated/control)” value ([1]; gene rplW (Ribosomal protein L23)) was 0.27, the “Ratio (DHCP-treated/control)” value ([1]; gene rplX (Ribosomal protein L24)) was 0.31 and the “Ratio (DHCP-treated/control)” value ([1]; gene rplY (Ribosomal protein L25)) was 0.28. The “Ratio (DHCP-treated/control)” value ([1]; gene rpmB (Ribosomal protein L28)) was 0.45, the “Ratio (DHCP-treated/control)” value ([1]; gene rpmE (Ribosomal protein L31)) was 0.39 and the “Ratio (DHCP-treated/control)” value ([1]; gene rpoS (RNP polymerase sigma factor RpoS)) was 4. For the same compound, the “Ratio (DHCP-treated/control)” value ([1]; gene sdaC (Probable serine transport protein)) was 0.25, the “Ratio (DHCP-treated/control)” value ([1]; gene secF (Secretion protein SecF)) was 0.26 and the “Ratio (DHCP-treated/control)” value ([1]; gene secG (P12 cytoplasmic membrane protein)) was 0.30. For the same compound, the “Ratio (DHCP-treated/control)” value ([1]; gene secY (SecY protein)) was 0.40, the “Ratio (DHCP-treated/control)” value ([1]; gene tsr (Methyl-accepting chemotaxis protein1(mcp-1))) was 0.22 and the “Ratio (DHCP-treated/control)” value ([1]; gene tsx (Nucleoside-specific channel-forming protein)) was 0.22. For the same compound, the “Ratio (DHCP-treated/control)” value ([1]; gene wrbA (Trp repressor binding protein)) was 14.00, the “Ratio (DHCP-treated/control)” value ([1]; gene yieI (unknown function or class)) was 4 and the “Ratio (DHCP-treated/control)” value ([1]; gene znu (High-affinity zinc uptake system protein)) was 0.13. For the same compound, the “Induction of CreBC-regulated genes” value ([1]; genes ackA, pta, radc, malE and trgB) was “not induced”, the Induction of genes ([1]; genes astD, tnaB and gabT) was “not induced” and the “Effect on mRNA levels” value ([1]; genes cysG and cysS (not in Cys regulon)) was “not affected”. For the same compound, the “Decrease of mRNA levels” value ([1]; genes encoding outer membrane proteins (Omp)) was 5-15 times, the “Decrease of mRNA levels” value ([1]; genes motA, motB and cheA (motor action)) was 4-6 times and the “Change of mRNA levels” value ([1]; genes parc and parE (topoisomerase IV subunits)) was “did not change”. The “Change of mRNA levels” value ([1]; genes rfa, wzb or hha) was “did not change significantly”, the “Reduction of mRNA levels” value ([1]; most of the genes encoding ribosomal L proteins) was 2-3 times and the “Activity as AI-2 candidate in the screening assay” value [2] was “did not show any activity”. The “Growth of E. coli JM83” value (E. coli JM83; after 3 h of incubation) was “severely impaired” and the “Growth of E. coli JM83” value (E. coli JM83; after 5 h) was “stopped growing”.
